We go through four compounds from patent US20260209325A1, “SELECTIVE AND POTENT INHIBITORY ANTIBODIES OF MYOSTATIN ACTIVATION” (SCHOLAR ROCK, INC., priority 2022, published 2026).

Values joined by “and” are separate entries in the source; they are usually repeats but may differ in a detail not shown here. Identical values can stand only once.

For data set [1] the following is noted: patients with SMA, Phase 2 (TOPAZ; NCT03921528); cited from earlier work.
The target in data set [2] is latent myostatin (Homo sapiens, UniProt O14793). The following applies: in vivo; cited from earlier work.
The conditions of data set [3]: type 2 diabetics, meta-analysis; cited from earlier work.
Data set [4] can be described thus: high fat diet mice treated with metformin and antibody (Example 4). In kind it is in vivo, mouse. The following applies: monotherapy, 45% high fat diet; FIG. 12A. As for the experimental part:
Male C57/BL6 mice were fed a 60% high fat diet beginning at six weeks of age. At nineteen weeks of age (day 0), the mice were switched to a 45% high fat diet for 63 days. […] These mice were further divided into groups that received either 50 mg/kg of metformin or no metformin (Table 22a).
Body weight and food intake were monitored three times per week throughout the study. On days 7, 35, 49, and 63, body composition was determined by qNMR, and glucose, ketones, and insulin were measured. At the end of the study on day 63, body composition was determined by qNMR; glucose, ketones, and insulin were measured, gastrocnemius muscle, whole liver, epididymal, and subcutaneous adipose tissue was collected and weighed.
Male C57/BL6 mice (n=8/group) were fed a 60% HFD until week 18, at which time they are switched to a 45% HFD for 7 days. At day 7, animals in group 3-6 were treated with 50 mg/kg/day metformin, given orally throughout the remainder of the study.
Body weight was measured three times per week; lean mass and fat mass were measured by qNMR on days 7, 35, 49, 63, and 77; serum glucose was also measured on days 7, 35, 49, 63, and 77; serum insulin was measured on days 49, 63, and 77. A glucose tolerance test (GTT) and an insulin tolerance test (ITT) was administered between day 56 and day 63.

A short description of data set [5]: semaglutide plus Ab109 in DIO mice incl. semaglutide withdrawal (Example 6). Format: in vivo, mouse. As for the experimental part: Male C57/BL6 male mice (n=8/group) were either fed regular mouse chow (Group 1) or placed on a 60% high fat diet at six weeks of age and maintained on the 60% high fat diet until 21 weeks of age (Groups 2-8), at which time the study began (day 0). On day 0, animals in groups 2-8 were switched to a 45% high fat diet and maintained on the 45% high fat diet until the animals were terminated. […] Body weight was measured three times per week and qNMR measurements of lean mass and fat mass were obtained on the days set forth.
Animals in groups 3 and 4 were dosed with semaglutide weekly for 14 days, then terminated. Animals in groups 5 and 6 (weight regain groups), were treated with semaglutide for 35 days, then the semaglutide treatment was ended while the myostatin activation inhibiting antibody treatment continued until the animals were terminated on day 63. The animals in Groups 7 and 8 were treated with semaglutide for 63 days, i.e., they remained on semaglutide until the study terminated on day 63.
At termination, left and right gastrocnemius muscles were removed and frozen; the liver was weighed, one lobe was fixed, and the remainder was frozen; epididymal adipose tissue was removed and weighed; subcutaneous adipose tissue was removed and weighed; and a terminal serum bleed was obtained.

Data set [6] in a line: Ab109 with 0.01 or 0.04 mg/kg semaglutide in DIO mice (Example 9). Format: in vivo, mouse. The conditions noted are these: for loss in perigonadal fat pad weight: FIG. 22A; for loss in inguinal fat pads: FIG. 22B; for loss in quadriceps weight: FIG. 21A. The procedure:
Male C57/BL6 male mice (n=8/group) were placed on a 60% high fat diet at […] of age and maintained on the 60% high fat diet until 21 weeks of age (Groups 1-12), at which time the study began (day −7). On day −7, animals in groups 1-12 were switched to a 45% high fat diet and maintained on the 45% high fat diet until the animals were terminated. […] Body weight was measured three times per week and qNMR measurements of lean mass and fat mass were obtained pre-dose on day 0 and on days 7, 14 and 21. Fasting glucose was measured on day 18 after a 4 hour fast.
Animals in groups 3-12 were dosed with semaglutide daily for 3 weeks, then terminated. Animals in groups 1, 3, and 4 were treated with IgG control antibody, and those in groups 2, 5-12 were treated with myostatin activation inhibiting antibody treatment, for 3 weeks.
At termination, left gastrocnemius and quadriceps muscles were removed and frozen; the liver was weighed, one lobe was frozen; epididymal (perigonadal) adipose tissue was removed and weighed; inguinal (subcutaneous) adipose tissue was removed and weighed; and a terminal serum bleed was obtained.

For data set [7] the following is noted: Wilding et al. 2022; cited from earlier work.
For data set [8], the system named is leptin. Briefly: circulating leptin, U-PLEX Metabolic Hormones Combo 1 (Example 6). In kind it is in vivo, mouse. The conditions noted are these: FIG. 14K. As for the experimental part:
Circulating leptin was measured using the U-PLEX Metabolic Hormones Combo 1 (mouse) according to manufacturer's instructions (Meso Scale Diagnostics, #K15306K-2). As expected, circulating leptin was higher in animals fed the high fat diet than animals fed a standard chow.

For data set [9] the following is noted: obese patients with type 2 diabetes; cited from earlier work.
Data set [10] has as its system follicle stimulating hormone (FSH). The conditions noted are these: women; cited from earlier work.

Regarding “apitegromab: selective myostatin inhibitor antibody that targets pro/latent myostatin and inhibits its activation”, the efficacy and safety entry in data set [1] was “shown efficacy and safety”. In addition, the “circulating latent myostatin in treated subjects” value in [2] is “elevated levels of circulating latent myostatin”.
Take `CN(C)C(=N)N=C(N)N` [metformin, reference compound]: the “effect on weight loss” value in data set [3] is “no effect on weight loss”. In addition, the fat mass gain entry in [4] is recorded as “Neither metformin alone nor Ab109 alone showed this effect”.
Regarding semaglutide [reference compound], the body weight result in data set [5] (45% high fat diet, semaglutide 0.04 mg/kg with hIgG or Ab109, incl. regain after withdrawal, FIG. 14A) is listed as “lost weight”; in data set [6] (45% high fat diet, semaglutide 0.01 or 0.04 mg/kg daily, 3 weeks, FIGS. 18A-B), “lost weight”. Further, in data set [5] (semaglutide and hIgG), the “loss of lean mass while on semaglutide” value is reported as “about 4%”. Besides, in [5] (semaglutide and hIgG, after semaglutide was stopped), the “net loss of lean mass at the end of the study” value is 2.5%. Moreover, the fat mass entry in [5] (semaglutide, and regain after withdrawal with Ab109 or control IgG, FIG. 14D) is listed as “induced fat mass loss”. For the same compound, in data set [6] (0.01 mg/kg semaglutide, FIG. 20B), the “loss in lean mass” value came to 4.7%. Besides, the “loss of lean mass” value in data set [6] (0.04 mg/kg semaglutide and hIgG, 3 weeks, FIG. 20A) is given as “about 9.5%”. Besides, the results for the “loss in perigonadal fat pad weight” value in data set [6] (semaglutide 0.01 mg/kg) and in data set [6] (semaglutide 0.04 mg/kg) were −19.1% and −45.5%, respectively. The “loss in inguinal fat pads” value in [6] (semaglutide 0.01 mg/kg) is −21.4%; in [6] (semaglutide 0.04 mg/kg) it was −47.4%. For the same compound, the fat mass loss result in data set [6] (semaglutide 0.04 mg/kg alone or with Ab109, FIG. 19A, 19C) is “induced fat mass loss”. Besides, the “loss in gastrocnemius muscle weight” value in data set [6] (semaglutide 0.01 and 0.04 mg/kg, dose of each value not stated, FIG. 21B) is −16.9% and −20.3%. Besides, the “loss in quadriceps weight” value in data set [6] (semaglutide high dose (0.04 mg/kg)) is −7.6%; in data set [6] (semaglutide low dose (0.01 mg/kg)), −4.8%. In [7], the “regain of prior weight loss one year after discontinuing treatment” value is “regained two-thirds of their prior weight loss”. Also, the circulating leptin entry in [8] was “lowered circulating leptin”.
Consider bimagrumab: an anti-ActRIIB antibody, for which, in data set [9], the “total body fat mass and lean mass” value is “reduce total body fat mass and increase lean mass”. Further, the “follicle stimulating hormone (FSH)” value in [10] is given as “significantly reduce follicle stimulating hormone (FSH)”.
